Results reported in PubChem BioAssay (NCI).
“And” between values parts separate entries of the source, which are not always exact repeats. Equal entries are not always repeated.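 Tested at 5 concentrations; 48 h exposure; 96-well plates; endpoints linearly interpolated, else capped at highest concentration. Here, GI50 denotes the concentration required for 50% inhibition of growth. TGI: total growth inhibition.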

Experiments:
Experiment in all cases: NCI tumour cell line growth inhibition, 48 h
[1] = system: A498 renal
[2] = system: SK-MEL-2 melanoma
[3] = system: NCI-H460 lung
[4] = system: MOLT-4 leukemia
[5] = system: DU-145 prostate
[6] = system: IGROV1 ovarian
[7] = system: HCT-15 colon
[8] = system: SF-295 CNS
[9] = system: SW-620 colon
[10] = system: HT29 colon

| Structure (SMILES) | GI50 [1] [µM] | TGI [1] | GI50 [2] [µM] | TGI [2] | GI50 [3] [µM] | TGI [3] | GI50 [4] [µM] | TGI [4] [µM] | GI50 [5] [µM] | TGI [5] [µM] | GI50 [6] [µM] | TGI [6] [µM] | GI50 [7] [µM] | TGI [7] [µM] | GI50 [8] [µM] | TGI [8] [µM] | GI50 [9] [µM] | TGI [9] | GI50 [10] [µM] | TGI [10] [µM] |
| --- | --- | --- | --- | --- | --- | --- | --- | --- | --- | --- | --- | --- | --- | --- | --- | --- | --- | --- | --- | --- |
| Cc1[nH]c2ccc(F)cc2c1-c1nc2c3cccnc3c3ncccc3c2[nH]1 | 0.944 | > 100 µM | 0.51 | > 100 µM | 0.41 | > 100 µM | 0.298 | > 100 | 0.308 | > 100 | 0.374 | > 100 | 0.387 | > 100 | 0.428 | > 100 | 0.374 | > 100 µM | 0.479 | > 100 |
| O=C1C(c2cnc3ccccc3n2)=C(O)c2ccccc21 | – | > 100 µM | – | > 100 µM | – | > 100 µM | – | > 100 | – | > 100 | – | > 100 | – | 9.75 | – | > 88.1 | – | > 56.2 µM | – | > 100 |
| O=S(=O)(c1cccc2c(I)cccc12)N1CCCNCC1 | 14.2 | 30.2 µM | 16.7 | 33.6 µM | 33.2 | > 100 µM | 10.9 | 27.6 | 15.8 | 36.3 | 15.8 | 31.4 | 17.9 | 34.7 | 16.1 | 34.1 | 17.1 | 51.4 µM | 20.8 | 55.3 |
| COC(=O)Nc1nc2ccc(Oc3cccc(NC(=O)Nc4cc(C(F)(F)F)ccc4F)c3)cc2[nH]1 | 9.46 | > 25 µM | 5.28 | 19.5 µM | 11.4 | > 25 µM | 15.8 | > 25 | > 25 | > 25 | 12.1 | > 25 | 11.8 | > 25 | 14.6 | > 25 | 10.3 | > 25 µM | 9.11 | > 25 |
| Cn1cccc1-c1cc(-c2ccc(Br)cc2)[nH]c(=O)c1C#N | 54.4 | > 100 µM | > 100 | > 100 µM | > 100 | > 100 µM | 57.1 | > 100 | > 100 | > 100 | 77.2 | > 100 | > 100 | > 100 | > 100 | > 100 | > 100 | > 100 µM | > 100 | > 100 |
| CCN1C(=O)N(CC)C2C1NN=c1s/c(=C\c3ccccn3)c(=O)n12 (stereo not drawn) | 0.184 | 2.74 µM | 2.64 | > 100 µM | 2.07 | > 100 µM | 1.57 | > 100 | 2.4 | > 100 | 2.02 | > 100 | 0.558 | > 100 | 2.72 | > 100 | 0.743 | > 100 µM | 0.681 | > 100 |
| COc1ccc(N(/C=C/C(=O)C(F)(F)F)CC(=O)c2ccc(F)cc2)cc1 | 14.2 | 37.8 µM | 31.6 | 67.2 µM | 23.5 | 50 µM | 16.1 | 43.6 | 36.2 | > 100 | 13 | 30.7 | 16 | 38.7 | 27.4 | 91 | 35 | > 100 µM | 46.2 | > 100 |
| Cc1nn(C)c(COc2ccc(N3CCN(S(=O)(=O)N(C)C)CC3)cc2)c1-c1cccc2c(CCCOc3cccc4ccccc34)c(C(=O)O)n(CCN3CCOCC3)c12 | 2.3 | 6.59 µM | 1.95 | 4.35 µM | 3.17 | 11.1 µM | 3.52 | 16.5 | 5.03 | 16.7 | 3.52 | 11.7 | 7.62 | 22.9 | 2.78 | 10.2 | 3.59 | 15 µM | 2.63 | 6.92 |
| O=C(Nc1ccc(Oc2cccc(F)c2)c(Cl)c1)c1cnccn1 | 3.77 | 43.3 µM | 2.15 | > 50 µM | 1.79 | > 50 µM | 1.85 | > 50 | 2 | > 50 | 1.83 | > 50 | 0.28 | > 50 | 1.56 | > 50 | 0.366 | > 50 µM | 0.234 | > 50 |
| CCc1ccc2c(c1)C(=O)c1c-2n(CCCN=[N+]=[N-])c(=O)c2cc(OC)c(OC)cc12 | 25.8 | 84.5 µM | > 100 | > 100 µM | > 100 | > 100 µM | > 100 | > 100 | > 100 | > 100 | 53.4 | > 100 | > 100 | > 100 | 56.1 | > 100 | > 100 | > 100 µM | > 100 | > 100 |
| CC(=O)[O][Sn]([CH2]c1ccccc1)([CH2]c1ccccc1)[CH2]c1ccccc1 | > 4.95 | 9.94 µM | > 8.34 | > 10 µM | > 10 | > 10 µM | > 10 | > 10 | > 10 | > 10 | > 10 | > 10 | 4.25 | > 4.64 | > 5.52 | > 6.84 | > 8.82 | > 10 µM | 4.72 | > 8.87 |
| COc1ccc(CC(=O)c2ccc(O)cc2O)cc1 | 29.3 | > 100 µM | > 100 | > 100 µM | 56.1 | > 100 µM | 57.4 | > 100 | > 100 | > 100 | 53.4 | > 100 | > 100 | > 100 | 46.2 | > 100 | > 100 | > 100 µM | > 100 | > 100 |
| COc1ccc(C2=C(c3ccc(OC)c(OC)c3)C(=O)N3CCCC3C2)cc1 (stereo not drawn) | 34.1 | > 100 µM | > 71.1 | > 100 µM | 4.46 | 23.3 µM | 2.72 | 19.6 | 30.8 | > 86.8 | 13.3 | > 100 | 5.18 | > 100 | 29.2 | > 100 | 32.5 | > 100 µM | 13.6 | > 100 |
| O=[N+]([O-])c1ccc(N2CCC(CCCC3CCN(c4ccc([N+](=O)[O-])cc4[N+](=O)[O-])CC3)CC2)c([N+](=O)[O-])c1 | – | 31.8 µM | – | 32 µM | – | 28.8 µM | – | 53.2 | – | 61.3 | – | 25.3 | – | 41.6 | – | 32.3 | – | 57.4 µM | – | 22.2 |
| O=c1c(O)c(-c2ccc(O)c(O)c2)oc2cc(O)cc(O)c12 | 7.11 | 24.2 µM and > 100 µM | 15.1 | 47.3 µM and > 100 µM | 6.73 | 66.9 µM and > 100 µM | 13 | > 100 | 20 | > 100 | 11.5 | > 100 | 10.1 | > 100 | 23.1 | > 100 | 26.7 | > 100 µM and 59.8 µM | 37.3 | > 100 |
| CC1=C(C(=O)N(C)c2ccc(Cl)c(C(=O)OC(C)C)c2)SCCO1 | – | > 100 µM | – | > 100 µM | – | > 100 µM | – | > 100 | – | > 100 | – | > 100 | – | > 100 | – | > 100 | – | > 100 µM | – | > 100 |
| COc1cccc(-c2cc3c4c(nc5ccccc53)C(=O)c3cccnc3-c4n2)c1 | 14.1 | 29.5 µM | 1.18 | 4.16 µM | 1.07 | – | 0.788 | > 100 | 1.67 | 3.13 | 3.37 | 14.4 | 1.52 | 4.44 | 2.34 | 6.44 | 1.32 | 3.88 µM | 2.49 | 6.19 |
| Cc1ccc(-c2nc3nc(-c4ccccc4)nc(N4CCNCC4)c3o2)cc1 | 1.47 | 2.97 µM | 1.86 | 3.64 µM | 0.226 | 0.503 µM | 0.238 | 0.573 | 0.508 | 1.73 | 0.577 | 1.41 | 0.291 | 0.834 | 0.589 | 1.19 | 0.23 | 0.54 µM | 0.242 | 0.567 |
| COc1ccccc1CNCCCN1C(=O)c2ccc3c4c(ccc(c24)C1=O)C(=O)N(CCCN)C3=O | 1.57 | 3.04 µM | 1.46 | 3.31 µM | 0.553 | 2.16 µM | 0.446 | 2.24 | 1.38 | 2.71 | 1.35 | 3.48 | 1.41 | 3.67 | 1.31 | 2.81 | 0.589 | 2.33 µM | 1.42 | 3.75 |
| COc1ccc(/C=C(\C(=O)NCc2cccnc2)S(=O)(=O)c2ccccc2)cc1OC | 2.78 | 8 µM | 3.01 | 12.7 µM | 2.4 | 6.67 µM | 3.35 | 89.1 | 3.06 | 12.4 | 2.22 | 11.3 | 2.85 | 11.7 | 2.95 | 9.11 | 2.95 | 10.9 µM | 3.45 | 14.8 |
| N#CSCc1ccc(Cl)c(CSC#N)c1 | 0.273 | 4.04 µM | 16.2 | 73 µM | 0.807 | 12.6 µM | 0.109 | 53.5 | 0.121 | 12.7 | 5.9 | 49.8 | 0.143 | 25.1 | 3.15 | > 49.3 | 0.0395 | 15.7 µM | 0.0423 | > 37.6 |
| O=[N+]([O-])c1ccc(N=Nc2ccc(O)c3ccccc23)cc1 | 3.32 | 86.8 µM | 3.23 | 21.8 µM | 3.49 | 27.1 µM | 5.22 | > 100 | 6.66 | > 100 | 5.27 | > 100 | 3.29 | > 100 | 9.89 | > 100 | 3.33 | > 100 µM | 13.7 | > 100 |
| CN1CCc2[nH]nc(-c3n[nH]c4c3CN(C)CC4)c2C1 | – | > 100 µM | – | > 100 µM | – | > 100 µM | – | > 100 | – | > 100 | – | > 100 | – | > 100 | – | > 100 | – | > 100 µM | – | > 100 |
| O1[As]2O[As]3O[As]1O[As](O2)O3 | 0.0875 | 0.352 µM | 1.84 | 16.7 µM | 2.03 | – | 1.28 | 4.58 | 2.08 | 7.21 | 0.457 | 2.7 | 1.08 | 4.79 | 2.63 | 9 | 0.577 | 4.54 µM | 0.876 | 4.67 |
| CC(C)(C)c1[nH]nc2c1C(c1cc3ccccc3[nH]c1=O)Nc1cc(C(=O)OCc3ccccc3)ccc1N2 (stereo not drawn) | 3.73 | 81.9 µM | 3.33 | 7.28 µM | 3.14 | > 100 µM | 3.3 | 44.1 | 6.04 | > 100 | 4.32 | > 100 | 4.65 | > 100 | 3.17 | 38.5 | 3.53 | > 100 µM | 2.75 | 6.52 |
| CN(C)CC1CCC2=C(C1=O)C(c1ccc(Cl)c(Cl)c1)C1=C(CCC(CN(C)C)C1=O)O2 (stereo not drawn) | 14.3 | 27.4 µM | 16.6 | 30.7 µM | 10.3 | 24.6 µM | 5.18 | 22.1 | 2.91 | 9.09 | 4.54 | 8.97 | 8.75 | 29.2 | 16.9 | 30.5 | 2.47 | 16.9 µM | 8.57 | 22.4 |
